# Reference: publication PMC12880750, “Mechanistic insights and in vivo HIV suppression by the BRD4-targeting small molecule ZL0580” (PLOS Pathogens, 2026)
# Key:
# BRD4 BD1 = assay: In vitro binding affinity (TR-FRET), BRD4 BD1; design: species or system human; conditions: from IC50 BD1 and BD2
# BRD4 BD2 WT = molecular target: T1, BRD4 BD2 WT (Homo sapiens, UniProt O60885); assay: Thermal shift assay (TSA/DSF), BD2 WT; assay type: binding; conditions: eight increasing concentrations
# T1 construct: Constructs used for mutagenesis, including wild-type BD1 (BD1 WT), BD1 with an E151A mutation (BD1 E151A), and wild-type BD2 (BD2 WT); GST (cleaved yes); made in house
# Description: The melting temperatures shifts (ΔTm) were measured and the ΔTm curves as a function of compound-to-protein ratios were generated (Fig 2B–2C). […] As an additional control, the Tm of WT BD1 and E151A mutant in the absence of compound was also measured by TSA.
# Plasmid construction and subsequent protein expression and purification of BRD4 proteins were performed using OverExpress C43(DE3) bacterial competent cells (Lucigen) as described in our previous studies. In brief, 12 L of bacterial cultures grown to OD600 between 0.6-0.8 were induced at 37°C for 4 h by 1 mM isopropyl […] (IPTG). Bacterial sonication supernatant in the lysis buffer (500 mM NaCl, 20 mM Tris-HCl pH 7.9 at 4°C, 20% glycerol, 1 mM EDTA, 0.2 mM DTT, and protease inhibitors) was incubated with glutathione (GSH) agarose beads (GOLDBIO, G-250–100) overnight with rotation at 4°C. The protein-bound GSH beads were washed three times with the lysis buffer and digested with human rhinovirus 3C protease (HRV-P3C; Thermal Fisher 88946) at 4°C for 4 h, according to the manufacture’s procedure, to remove GST tag from BD1/2 proteins. Untagged BRD4-BD1 and -BD2 were separated from HRV-P3C via passing through a HiTrap Q HP anion exchange chromatography column (GE Healthcare, GE17-1154-01) and eluted by a salt gradient from 100 mM to 1 M NaCl. […]
# [1] = system: WT J-Lat cells (Clone […]); assay: RT-qPCR validation of differentially expressed genes, WT J-Lat cells; assay type: cell-based, human; conditions: 5 μM, 24 h, normalized to GAPDH
# Description: (§1) To validate the RNA-Seq results, RT-qPCR analysis was performed on a subset of differentially expressed genes (DEGs) (Fig 3E). Eight representative DEGs were selected based on statistical significance (adjusted p values) and their involvement in key pathways identified by GSEA, including lipid metabolism/cholesterol biosynthesis (HMGCS1, SQLE, DHCR7) and cytokine signaling (ITK and DUSP8). Relative gene expression levels were normalized to the housekeeping gene GAPDH. […] As an additional control, RT-qPCR was also performed on RNA isolated from BRD4-knockout (KO) J-Lat cells that received the same treatments. The generation and characterization of BRD4-KO J-Lat cells were described previously.
# (§2) RT-qPCR was performed as previously reported.
# [2] = system: BRD4-knockout (KO) J-Lat cells; assay: RT-qPCR of differentially expressed genes, BRD4-KO J-Lat cells; assay type: cell-based, human; conditions: same treatments
# Description: as §1, §2
# HIV-1 JR-CSF = assay: Cell-associated HIV DNA in blood cells of Hu-mice; assay type: in vivo, CD34+ Hu-NSG mice (Hu-mice); conditions: qPCR, per 10^7 PB cells
# From the text: To assess whether ZL0580 or ART affects HIV DNA levels, we quantified cell-associated HIV DNA in the peripheral blood of Hu-mice after treatments. Blood cells collected at weeks 7, 11 and 13 were subjected to DNA extraction and quantification of HIV DNA by qPCR. […] By week 13, HIV DNA levels also remained similar across all groups (Fig 7C).
# Mice were 16-week-old at the initiation of the experiments. All mice received human CD34 + stem cells of a single donor and human immune cell reconstitution was confirmed for all mice. A total of 12 Hu-mice were initially included in the study with each tagged and assigned with a unique ID. […] Blood/plasma viral loads were monitored and quantified weekly by a single-step RT-qPCR until systemic HIV infection was established. […] Plasma samples were collected from mice either weekly or biweekly for quantification of viral loads (RNA copies). Blood cells were also collected at weeks 7 and 13 for quantification of cell-associated HIV DNA in blood. Mouse weights were monitored after treatment.
# Quantification of cell-associated HIV DNA in blood cells was performed by qPCR as previously described with modifications. Blood cells were counted and subjected to DNA extraction using the Qiagen QIAamp DNA Blood Mini Kit (QIAGEN). qPCR primers and probe: Forward: 5′-[…]-3′, Reverse: 5′-[…]-3′, Probe: 5’-/5HEX/[…]/ZEN/GCC […]/3IABkFQ. […]
# [3] = Body weight / tolerability in HIV-infected Hu-mice; assay type: in vivo, CD34+ Hu-NSG mice (Hu-mice)
# From the text: To assess general health of the mice and potential protective effects of the treatments, body weights of Hu-mice were closely monitored. […] There was a slight reduction in body weights of Hu-mice in the EV group following HIV infection. However, no statistically significant difference was detected as compared to the three treatment groups (Fig 6E).
# Mice were 16-week-old at the initiation of the experiments. All mice received human CD34 + stem cells of a single donor and human immune cell reconstitution was confirmed for all mice. A total of 12 Hu-mice were initially included in the study with each tagged and assigned with a unique ID. At week 0, all Hu-mice were intravenously (IV) infected with HIV-1 JR-CSF at a single dose of 10ng HIV p24 equivalent virus per animal. Blood/plasma viral loads were monitored and quantified weekly by a single-step RT-qPCR until systemic HIV infection was established. […] At week 3, the remaining 11 Hu-mice were randomized into four groups for subsequent treatments: Empty Vehicle (EV) (n = 2), ART (n = 3), ZL0580 (n = 3), and ART + ZL0580 (n = 3). […] Plasma samples were collected from mice either weekly or biweekly for quantification of viral loads (RNA copies). Blood cells were also collected at weeks 7 and 13 for quantification of cell-associated HIV DNA in blood. Mouse weights were monitored after treatment.
# BRD4 BD2 = system: BRD4 BD2; design: method as in PMID 31329163; conditions: in vitro binding affinity; cited from earlier work
smiles,measurement,setting,value
O=C(Nc1ccc(C(F)(F)F)cc1)Nc1ccc(S(=O)(=O)N2CCC[C@H]2C(=O)Nc2ccccc2)cc1 [ZL0580],Selectivity (BRD4 BD1 vs BD2),BRD4 BD1,about 7 fold
same,Effect on stability of WT BD2 (TSA),BRD4 BD2 WT,sparing BD2
same,"Expression of HMGCS1, SQLE, DHCR7, ASS1, ITK, DUSP8 relative to NC",[1],upregulated
same,Expression of KLF10 and WDR52 relative to NC,[1],downregulated
same,Contrasting regulatory effects on representative DEGs in the absence of BRD4,[2],largely abolished
same,"HIV DNA copies in peripheral blood cells at week 7, among groups incl. EV control",HIV-1 JR-CSF,no significant differences
same,Tolerability in Hu-mice,[3]; daily intraperitoneal administration over the course of treatment,well tolerated
same,Body weights of Hu-mice,"[3]; daily intraperitoneal administration, throughout the study",maintained stable body weights
same,IC50,BRD4 BD2,1070 nM
